Experimental findings from patent US20240368133A1, “Compounds for the Treatment of Pain, in Particular, Neuropathic Pain, and/or Other Diseases or Disorders that are Associated with AT2R and/or AT2R Mediated Signaling” (Confo Therapeutics N.V., priority 2021, published 2024) are described below.

The nature of series [1]: Liver microsomal stability, human. It counts as in vitro ADME. The following applies: pH 7.4, liver microsomes. How it is done: Microsomal incubations were carried out in 96-well plates in 5 aliquots of 40 μL each (one for each time point). Liver microsomal incubation medium contained PBS (100 mM, pH 7.4), MgCl2 (3.3 mM), NADPH (3 mM), glucose-6-phosphate (5.3 mM), glucose-6-phosphate dehydrogenase (0.67 units/ml) with 0.42 mg of liver microsomal protein per ml. Control incubations were performed replacing the NADPH-cofactor system with PBS. Test compound (2 μM, final solvent concentration 1.6%) was incubated with microsomes at 37° C., shaking at 100 rpm. Incubations were performed in duplicates. Five time points over 40 minutes have been analyzed. The reactions were stopped by adding 12 volumes of 90% acetonitrile-water to incubation aliquots, followed by protein sedimentation by centrifuging at 5500 rpm for 3 minutes. […]. Supernatants were analyzed using the HPLC system coupled with tandem mass spectrometer (API3000 PE Sciex). Acquisition and analysis of the data were performed using Analyst 1.5.2 software (PE Sciex). The elimination constant (kel), half-life (t½) and intrinsic clearance (Clint) were determined in plot of […] versus time, using linear regression analysis:
A 10 mM stock solution of compound in DMSO is diluted three-fold in DMSO. This pre-diluted compound solution is then further diluted to 2 μM in a 50 mM phosphate buffer (PBS, pH 7.4) and pre-warmed at 37° C. This compound dilution is mixed F2 with microsomal/cofactor mix at 37° C. under shaking at 300 rpm. Final reaction conditions are: 100 μL incubation volume, 1 μM of test compound (in duplicate), <0.1% DMSO, 0.5 mg/mL microsomes, 0.6 U/mL Glucose-6-phosphate-dehydrogenase (G6PDH, Roche, 10127671001), 3.3 mM MgCl2 (Sigma, M2670), 3.3 mM glucose-6-phosphate (Sigma, G-7879) and 1.3 mM NADP+ (Sigma, N-0505).
After 60 min of incubation at 300 rpm and 37° C., the reaction was stopped with 3 volumes of STOP solution (acetonitrile/MeOH 2/1 with diclofenac as internal standard). For the time point zero, 3 volumes of STOP solution were added to the compound dilution before the microsome mix was added. Six time points over 60 minutes have been analyzed. The samples of all time points were centrifuged, filtered and the supernatant analyzed by LCMS/MS (systems API4000).
The instrument responses (peak areas/IS peak area) were referenced to the zero time-point samples (considered as 100%) in order to determine the percentage of compound remaining.
Testosterone (1 μM) and Propranolol and Caffeine (1 μM) were used as reference compounds, being unstable and stable compounds respectively. If the microsomal stability values for these controls are not in the range determined by the historical data, the assay is not validated. The solubility of the compound in the final test concentration in 50 mM buffer pH 7.4 is checked by microscope to indicate whether precipitation is observed or not. If a precipitate is observed, no data of microsomal stability is generated.

In a further series the target is CYP1A2 (Homo sapiens (Human), UniProt P05177). The experiment in a line: in vitro. How it is done: (§1) The aim of this assay is to determine the inhibitory potential of a test compound. A major concern for drug-drug-interaction is cytochrome P450 inhibition. Reversible CYP inhibition was determined in human liver microsomes using specific probe substrates for human cytochrome P450 isoenzymes CYP1A2, 2C9, 2C19, 2D6 and 3A4.
Chain of CYP1A2 (P05177 whole entry): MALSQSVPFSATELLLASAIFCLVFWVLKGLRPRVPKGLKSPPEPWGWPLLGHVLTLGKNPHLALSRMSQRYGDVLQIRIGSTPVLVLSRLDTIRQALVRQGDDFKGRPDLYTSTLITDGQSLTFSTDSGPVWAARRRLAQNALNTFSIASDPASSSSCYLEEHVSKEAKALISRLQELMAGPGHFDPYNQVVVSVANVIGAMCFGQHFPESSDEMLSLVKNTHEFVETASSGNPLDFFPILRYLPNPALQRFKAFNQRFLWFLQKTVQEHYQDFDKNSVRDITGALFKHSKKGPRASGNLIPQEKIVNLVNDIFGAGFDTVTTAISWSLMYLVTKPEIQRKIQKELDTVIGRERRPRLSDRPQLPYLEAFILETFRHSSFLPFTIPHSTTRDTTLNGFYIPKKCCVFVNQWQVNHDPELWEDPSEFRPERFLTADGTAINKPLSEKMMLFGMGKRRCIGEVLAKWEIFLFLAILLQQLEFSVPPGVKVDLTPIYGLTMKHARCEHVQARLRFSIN
(§2) The potential for CYP450 inhibition was assessed by performing in vitro inhibition studies using fluorogenic CYP450 substrates with the corresponding CYP450 enzymes and NADPH regeneration system (Vivid CYP450 Screening Kits) with some minor changes to the manufacturer's protocols. The fluorescent signal produced from reaction is directly proportional to the cytochrome P450 activity. In the cases when tested compounds interfere with the CYP450 enzyme-substrate reaction, the fluorescent signal decreases. In brief, the tested compounds were first dissolved in DMSO at 100× concentration (1 mM), and diluted in buffer to 2.5× concentration (25 μM). Then the 2.5× compound solutions were mixed with the Master Pre-mix consisting of Human CYP450+Oxidoreductase and NADP+Regeneration System (glucose-6-phosphate and glucose-6-phosphate dehydrogenase). After 10 minutes pre-incubation, the enzymatic reaction was initiated by the addition of a mix of NADPH and the appropriate CYP450 substrates. The plate was incubated for the desired reaction time (25 min for CYP1A2, CYP2C9, CYP2D6, and CYP3A4, 60 min for CYP2C19) after which Stop Reagent was added and fluorescence measured using SpectraMax Paradigm Multi-Mode Microplate Reader. All test points were performed in quadruplicates at concentration 10 μM (1% DMSO).
A 10 mM stock solution of test compound is prepared in methanol. This stock is further serially diluted 1:3 in methanol and then added to mixture containing 50 mM potassium phosphate buffer pH7.4, human liver microsomes (BD Gentest) and probe substrate. After pre-warming 5 min at 37° C., the reaction is started by adding co-factor mix ([…] glucose-6-phosphate, 1.7 mg/mL NADP, 6 U/mL of glucose-6-phosphate dehydrogenase), resulting in a final concentration of test compound at 10 μM (2% MeOH).
Final concentrations of co-factor mix components are as follows: 1.56 mg/mL glucose-6-phosphate, 0.34 mg/mL NADP, 1.2 U/mL of glucose-6-phosphate dehydrogenase.
(§3) After incubation at 37° C., the reaction (aliquot of 50 μL) is terminated with 150 μL CH3CN:MeOH (2:1) solution with internal standard (warfarin for 2C9, diclofenac for all other tested isoforms). Samples are centrifuged and the supernatant fractions analyzed by LC-MS/MS.
(§4) The instrument responses (ratio of test compound and internal standard peak areas) are referenced to those for solvent controls (assumed as 100%) in order to determine the percentage reduction in probe metabolism. Percent of control activity vs. concentration plots are generated and fitted using GraphPad Prism software to generate IC50.

A further series addresses CYP2C9 (Homo sapiens (Human), UniProt P11712). As to the kind of experiment: CYP inhibition, CYP2C9. As to conditions: test compound at 10 μM, read-out: % Inhibition (PIN) 2C9. The series is classed as in vitro ADME. On the procedure:
as §1
as §2, with “In brief, the tested compounds were first dissolved in DMSO at 100× concentration (1 mM), and diluted in buffer to 2.5× concentration (25 μM). Then the 2.5× compound solutions were mixed with the Master Pre-mix consisting of Human CYP450+Oxidoreductase and NADP+Regeneration System (glucose-6-phosphate and glucose-6-phosphate dehydrogenase).” left out
A 10 mM stock solution of test compound is prepared in methanol. This stock is further serially diluted 1:3 in methanol and then added to mixture containing 50 mM potassium phosphate buffer pH7.4, human liver microsomes (BD Gentest) and probe substrate. […]
as §3, §4

Structures are written as SMILES. Some results are limits rather than exact numbers.

Chain of CYP2C9 (P11712 whole entry): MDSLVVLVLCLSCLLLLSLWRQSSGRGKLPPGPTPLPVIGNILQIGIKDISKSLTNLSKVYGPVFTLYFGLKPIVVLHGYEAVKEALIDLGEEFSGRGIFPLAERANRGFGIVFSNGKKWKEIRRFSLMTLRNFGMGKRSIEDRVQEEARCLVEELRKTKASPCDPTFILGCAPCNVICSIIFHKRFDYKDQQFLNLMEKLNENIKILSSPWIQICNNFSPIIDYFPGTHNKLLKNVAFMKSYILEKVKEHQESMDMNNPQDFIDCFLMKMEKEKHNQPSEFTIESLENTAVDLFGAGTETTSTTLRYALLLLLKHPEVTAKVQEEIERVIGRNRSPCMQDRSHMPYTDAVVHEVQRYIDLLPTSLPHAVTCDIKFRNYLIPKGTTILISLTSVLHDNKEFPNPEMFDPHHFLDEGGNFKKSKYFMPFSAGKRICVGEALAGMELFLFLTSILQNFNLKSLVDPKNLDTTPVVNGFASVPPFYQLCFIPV

Regarding `CC(C)Oc1ccc(-c2nn[nH]n2)c(N2CCN(Cc3nc4ccccc4s3)CC2)c1` [Compound A-51, 2-[[4-[5-isoprop-oxy-2-(2H-tetrazol-5-yl)phenyl]piper-azin-1-yl]methyl]-1,3-benzothiazole], the microsomal CLint (commonly the capacity of the preparation to metabolise the compound, expressed as a volume cleared per time) in series [1] was 12 µL/min/mg.
With `CC(C)Cc1ccc(-c2nn[nH]n2)c(N2CCN(Cc3ncccn3)CC2)c1` [Compound A-88], the microsomal CLint in series [1] was found to be 6 µL/min/mg. For the same molecule, the inhibition (in general, the percentage by which the read-out fell short of the control) at 10 µM against CYP1A2 stood at 22.5%; at CYP2C9, 15.8%.
Molecule `CCC1CN(Cc2cccnn2)CCN1c1cc(CC(C)C)cc(F)c1-c1nn[nH]n1` (stereo not drawn) [Compound A-181, 3-[[3-ethyl-4-[3-fluoro-5-isobutyl-2-(2H-tetrazol-5-yl)phenyl]piperazin-1-yl]methyl]pyridazine] yielded a microsomal CLint in series [1] of 12 µL/min/mg.
As for `CC(C)Cc1cc(F)c(-c2nn[nH]n2)c(N2CC(C)N(Cc3cccnn3)CC2C)c1` (stereo not drawn) [Compound A-183, 3-[[4-[3-fluoro-5-isobutyl-2-(2H-tetrazol-5-yl)phen-yl]-2,5-dimethyl-piperazin-1-yl]-methyl]pyridazine], the microsomal CLint in series [1] was determined as 7 µL/min/mg.
For `CC(C)Oc1ccc(-c2nn[nH]n2)c(N2CCN(Cc3nc4ccccc4c(=O)[nH]3)CC2)c1` [Compound A-32], the microsomal CLint in series [1] was determined as 10 µL/min/mg. The inhibition at 10 µM at CYP1A2 was 7.17%; on CYP2C9, 62.4%.
For the molecule `CC(C)Oc1ccc(-c2nn[nH]n2)c(N2CCN(Cc3nc4ccccc4n3C)CC2)c1` [Compound A-24, 2-[[4-[5-isopropoxy-2-(2H-tetrazol-5-yl)phenyl]piperazin-1-yl]methyl]-1-methyl-benzimidazole], the microsomal CLint in series [1] is 8 µL/min/mg. Further, the inhibition at 10 µM against CYP1A2 was found to be 27.4%; at CYP2C9 it was 36.6%.
Taken in the same sequence, the figures for `CCC1CN(c2cc(CC(C)C)cc(F)c2-c2nn[nH]n2)CCN1Cc1cccnn1` (stereo not drawn) [Compound A-178, 3-[[2-ethyl-4-[3-fluoro-5-isobutyl-2-(2H-tetrazol-5-yl)phenyl]piperazin-1-yl]methyl]pyridazine] were 20 µL/min/mg, 23.5% and 45.6%.
Taken in the same sequence, the figures for `CC(C)Cc1ccc(-c2nn[nH]n2)c(N2CCN(Cc3nccn3C)CC2)c1` [Compound A-83, 1-[5-isobutyl-2-(2H-tetrazol-5-yl)-phenyl]-4-[(1-meth-ylimidazol-2-yl)-methyl]piperazine] were 6 µL/min/mg, 2.61% and 3.37%.
Consider `Cc1cnc(CN2CCN(c3cc(CC(C)C)cc(F)c3-c3nn[nH]n3)C[C@@H]2C)s1` [Compound A-223, 2-[[(2S)-4-[3-fluoro-5-isobutyl-2-(2H-tetrazol-5-yl)phenyl]-2-methyl-piperazin-1-yl]methyl]-5-methyl-thiazole], for which the microsomal CLint in series [1] amounted to 18.2 µL/min/mg. The inhibition at 10 µM on CYP1A2 came to 16%; at CYP2C9, 43%.
For `CC(C)Cc1ccc(-c2nn[nH]n2)c(N2CCN(Cc3cccnn3)CC2)c1` [Compound A-90, 3-[[4-[5-isobutyl-2-(2H-tetrazol-5-yl)phenyl]piperazin-1-yl]methyl]pyridazine], in that order: 7 µL/min/mg, 10.3% and 28.4%.
The molecule `CCCCNC(=O)NS(=O)(=O)c1ccc(C)cc1N1CCN(Cc2nc3ccccc3n2C)CC1` [Compound A-12, 1-butyl-3-[4-methyl-2-[4-[(1-methylbenzimidazol-2-yl)methyl]piperazin-1-yl]phenyl]sulfonyl-urea] gave a microsomal CLint in series [1] of 259 µL/min/mg.
`CC(C)Cc1cc(F)c(-c2nn[nH]n2)c(N2CCN(Cc3ccccn3)[C@@H](C)C2)c1` [Compound A-217, (2S)-4-[3-fluoro-5-isobutyl-2-(2H-tetrazol-5-yl)phenyl]-2-methyl-1-(2-pyridylmethyl)piperazine]: in series [1], the intrinsic metabolic clearance (microsomal CLint) is below 6.6 µL/min/mg. Besides, the inhibition at 10 µM at CYP1A2 was 16%; on CYP2C9 it was 51%.
Taken in the same sequence, the figures for `CC(C)Cc1cc(F)c(-c2nn[nH]n2)c(N2CCN(Cc3cccnn3)[C@@H](C)C2)c1` [Compound A-174, 3-[[(2S)-4-[3-fluoro-5-isobutyl-2-(2H-tetrazol-5-yl)phenyl]-2-methyl-piperazin-1-yl]methyl]pyridazine] were below 6.6 µL/min/mg, 22.7% and 20.9%.
For `CCCCNC(=O)NS(=O)(=O)c1ccc(C(F)(F)F)cc1N1CCN(Cc2nc3ccccc3n2C)CC1` [Compound A-10, 1-butyl-3-[2-[4-[(1-methylbenzimidazol-2-yl)methyl]piperazin-1-yl]-4-(trifluoromethyl)phenyl]sulfonyl-urea], in that order: 99 µL/min/mg, 23% and 46.1%.
In series [1], `CCCCOC(=O)NS(=O)(=O)c1ccc(C(F)(F)F)cc1N1CCN(Cc2nc3ccccc3n2C)CC1` [Compound A-09, butyl N-[2-[4-[(1-methylbenzimidazol-2-yl)methyl]piperazin-1-yl]-4-(trifluoromethyl)phenyl]sulfonylcarbamate] gave a microsomal CLint of 37 µL/min/mg.
Same read-out and setting: with `CC(C)Cc1ccc(-c2nn[nH]n2)c(N2CCN(Cc3nc4ccccc4n3C)CC2)c1` [Compound A-20, 2-[[4-[5-isobutyl-2-(2H-tetrazol-5-yl)-phenyl]piperazin-1-yl]methyl]-1-meth-yl-benzimidazole] the figure was 24 µL/min/mg.
